In brackets after ≈: the same amount, converted by molar mass. Activity calls are given as the source filed them. No cut-off for these calls is given here.
Assays:
Borrelia burgdorferi [1] = test: Antimicrobial activity against Borrelia burgdorferi N40; format: functional; settings: Borreliella burgdorferi
[2] = Reduction in beta-actin gene expression in heart base tissue Borrelia burgdorferi infected mouse at 50 mg/kg; format: functional, organism-based; parameters: dose 50 mg/kg; settings: Borreliella burgdorferi
Borrelia burgdorferi [3] = test: Antimicrobial activity against Borrelia burgdorferi B31; format: functional; settings: Borreliella burgdorferi
[4] = Reduction in ospA gene expression assessed as gene copies in per mg of SCID mouse ventricular/quadriceps tissue receiving Borrelia burgdorferi infected nymphal ticks from 50 mg/kg treated mouse; format: functional, organism-based; parameters: dose 50 mg/kg; settings: Borreliella burgdorferi; Cardiac ventricle; at 50 mg/kg
[5] = Reduction in flaB gene expression in heart base tissue Borrelia burgdorferi infected mouse at 50 mg/kg; format: functional, organism-based; parameters: dose 50 mg/kg; settings: Borreliella burgdorferi
[6] = Reduction in flaB gene expression in heart base tissue Borrelia burgdorferi infected mouse at 12.5 mg/kg; format: functional, organism-based; parameters: dose 12.5 mg/kg; settings: Borreliella burgdorferi
[7] = Reduction in arp gene expression in heart base tissue Borrelia burgdorferi infected mouse at 50 mg/kg; format: functional, organism-based; parameters: dose 50 mg/kg; settings: Borreliella burgdorferi
[8] = Reduction in arp gene expression in heart base tissue Borrelia burgdorferi infected mouse at 12.5 mg/kg; format: functional, organism-based; parameters: dose 12.5 mg/kg; settings: Borreliella burgdorferi
[9] = Reduction in ospA gene expression in heart base tissue Borrelia burgdorferi infected mouse at 50 mg/kg; format: functional, organism-based; parameters: dose 50 mg/kg; settings: Borreliella burgdorferi
[10] = Reduction in dbpA gene expression in heart base tissue Borrelia burgdorferi infected mouse at 50 mg/kg; format: functional, organism-based; parameters: dose 50 mg/kg; settings: Borreliella burgdorferi
[11] = Reduction in ospA gene expression in heart base tissue of SCID mouse transplanted with tibiotarsal and heart base tissue from Borrelia burgdorferi infected 50 mg/kg treated mouse; format: functional, organism-based; parameters: dose 50 mg/kg; settings: Borreliella burgdorferi, at 50 mg/kg
[12] = Reduction in oppA-2 gene expression in heart base tissue Borrelia burgdorferi infected mouse at 50 mg/kg; format: functional, organism-based; parameters: dose 50 mg/kg; settings: Borreliella burgdorferi
[13] = Reduction in beta-Actin gene expression in heart base tissue Borrelia burgdorferi infected mouse at 12.5 mg/kg; format: functional, organism-based; parameters: dose 12.5 mg/kg; settings: Borreliella burgdorferi
[14] = Reduction in ospA gene expression in heart base tissue of SCID mouse transplanted with tibiotarsal and heart base tissue from Borrelia burgdorferi infected 12.5 mg/kg treated mouse; format: functional, organism-based; parameters: dose 12.5 mg/kg; settings: Borreliella burgdorferi, at 12.5 mg/kg

Row | MIC (Borrelia burgdorferi [1]) [µg/mL] | MIC (Borrelia burgdorferi [3]) [µg/mL] | Structure (SMILES) | inhibition [2] | inhibition [4] | inhibition [5] | inhibition [6] | inhibition [7] | inhibition [8] | inhibition [9] | inhibition [10] | inhibition [11] | inhibition [12] | inhibition [13] | inhibition [14]
1 | 0.006 (≈ 0.0102 µM) | 0.006 (≈ 0.0102 µM) | CN(C)c1cc(NC(=O)CNC(C)(C)C)c(O)c2c1C[C@H]1C[C@H]3[C@H](N(C)C)C(O)=C(C(N)=O)C(=O)[C@@]3(O)C(O)=C1C2=O [TIGECYCLINE] | inactive | Active | Active | Active | Active | Active | Active | Active | Active | inactive | inactive | 
2 | 0.024 (≈ 0.0718 µM) | 0.024 (≈ 0.0718 µM) | CC1(C)S[C@@H]2[C@H](NC(=O)Cc3ccccc3)C(=O)N2[C@H]1C(=O)O [PENICILLIN G] |  |  |  |  |  |  |  |  |  |  |  | 
3 | 0.78 | 0.39 | C[C@H]1c2cccc(O)c2C(=O)C2=C(O)[C@]3(O)C(=O)C(C(N)=O)=C(O)[C@@H](N(C)C)[C@@H]3[C@@H](O)[C@@H]21.O [DOXYCYCLINE] |  |  |  |  |  |  |  |  |  |  |  | 
4 | 0.048 (≈ 0.0866 µM) | 0.012 (≈ 0.0216 µM) | CO/N=C(\C(=O)N[C@@H]1C(=O)N2C(C(=O)O)=C(CSc3nc(=O)c(O)nn3C)CS[C@H]12)c1csc(N)n1 [CEFTRIAXONE] |  |  |  |  |  |  |  |  |  |  |  | Active

— ChEMBL document CHEMBL1212796, “Ineffectiveness of tigecycline against persistent Borrelia burgdorferi” (2010)
